The test system of one assay is HT29 (colon). The assay is described as follows: SRB anti-tumour (growth inhibition) assay, HT29. It is filed as cell-based. The conditions noted are these: Homo sapiens, HT-29, 48 h exposure, read-out: GI50 (concentration inhibiting 50% of cell growth). The procedure:
(§1) The compounds generated were tested against a series of cell lines from tumours. It quantitatively determined the cell growth and the viability, using a colorimetric assay type, using the reaction with sulforhodamine B (SRB), according to the technique described by Faircloth et al. (Journal of Tissue and Culture Methods 1988, 11, 201-205).
(§2) 96-well microtitre plates are inoculated with cells (5×10^3 cells per well) in aliquots of 195 μl of medium, incubating them during 18 h, in a medium without added compound, to allow the cells to adhere to the surface. Next, the compounds to be tested are added, in samples of 5 μl, at a range of concentrations of 10 to 10^−8 μg/ml, dissolved in DMSO/EtOH (0.2% in PS buffer). After 48 h exposure, the anti-tumour effect is measured using the Sulforhodamine B (SRB) technique: the cells are fixed adding 50 μl of cold […] (50%) (w/v) and it is incubated for 60 min. at 4° C. The plates are washed with deionized water and dried. 100 μl of SRB solution (0.4% w/v in 1% acetic acid) to each well and it is incubated during 10 min. at ambient temperature. The non-bound SRB is eliminated, washing with 1% acetic acid. The plates are air dried and the bound colorant is dissolved with Tris buffer. The optical densities are read in an automatic plate spectrophotometer reader at a wavelength of 490 nm.
(§3) For the compounds of formula (III), (IV), (V), (VI), (VII), (VIII), (IX) and the compounds of formula (XII), (XIII), (XIV), (XV), (XVI) and (XVIII).

In the next assay the test system is MDA-MB-231 (breast). The assay is described as follows: SRB anti-tumour (growth inhibition) assay, MDA-MB-231. It is filed as cell-based. Particulars: Homo sapiens, 48 h exposure, read-out: GI50 (concentration inhibiting 50% of cell growth). The procedure:
as §1, §2, §3

In the case of `C[C@@H]1O[C@@H](n2c3ccccc3c3c4c(c5c6ccccc6[nH]c5c32)C(=O)NC4=O)[C@H](O)[C@H](O)[C@H]1O` [formula (III), N^13-1′-β-L-rhamnosylarcyriaflavin], the GI50 worked out at 2420 nM in the assay with HT29 (colon) and 4400 nM with MDA-MB-231 (breast).

As to `C[C@@H]1O[C@@H](n2c3ccccc3c3c4c(c5c6ccccc6[nH]c5c32)C(=O)NC4=O)C[C@H](O)[C@H]1O` [formula (IV), N^13-1′-β-L-olivosylarcyriaflavin], the values for the GI50 in the assay on HT29 (colon) and in the assay with MDA-MB-231 (breast) were 8790 nM and 14100 nM, respectively.

As to `C[C@]12O[C@H](C[C@@H](O)[C@H]1O)n1c3ccccc3c3c4c(c5c6ccccc6n2c5c31)C(=O)NC4=O` [formula (IX), N^12-5′(S)-N^13-1′-(R)-L-digitoxosylarcyriaflavin], the GI50 with HT29 (colon) and in the assay on MDA-MB-231 (breast) was 8160 nM throughout.

Turning to `C[C@@H]1O[C@@H](n2c3ccccc3c3c4c(c5c6ccccc6[nH]c5c32)C(=O)NC4=O)C[C@@H](O)[C@H]1O` [formula (V), N^13-1′-β-L-digitoxosylarcyriaflavin], the GI50 amounted to 6390 nM with HT29 (colon) and 4190 nM in the assay on MDA-MB-231 (breast).

For `C[C@H]1O[C@@H](n2c3ccccc3c3c4c(c5c6ccccc6[nH]c5c32)C(=O)NC4=O)C[C@@H](O)[C@@H]1O` [formula (VI), N^13-1′-β-D-olivosylarcyriaflavin], the GI50 in the assay with HT29 (colon) amounted to 2160 nM; with MDA-MB-231 (breast), 2430 nM.

With `C[C@]12O[C@H]([C@H](O)[C@H](O)[C@H]1O)n1c3ccccc3c3c4c(c5c6ccccc6n2c5c31)C(=O)NC4=O` [formula (VII), N^12-5′(S)-N^13-1′-(R)-L-rhamnosylarcyriaflavin], the GI50 in the assay on HT29 (colon) turned out to be 2450 nM; with MDA-MB-231 (breast), 1350 nM.

As to `C[C@]12O[C@H](C[C@H](O)[C@H]1O)n1c3ccccc3c3c4c(c5c6ccccc6n2c5c31)C(=O)NC4=O` [formula (VIII), N^12-5′(S)-N^13-1′-(R)-L-olivosylarcyriaflavin], the GI50 came out at 11200 nM in the assay with HT29 (colon) and 7500 nM in the assay with MDA-MB-231 (breast).

On to `C[C@@H]1O[C@@H](n2c3ccccc3c3c4c(c5c6ccccc6[nH]c5c32)CNC4=O)[C@H](O)[C@H](O)[C@H]1O` [formula (XII), N^13-1′-β-L-rhamnosyl-k252c], for which the values for the GI50 in the assay with HT29 (colon) and with MDA-MB-231 (breast) were 2100 nM and 1970 nM, respectively.

Consider `C[C@@H]1O[C@@H](n2c3ccccc3c3c4c(c5c6ccccc6[nH]c5c32)CNC4=O)C[C@H](O)[C@H]1O` [formula (XIII), N^13-1′-β-L-olivosyl-k252c], for which the GI50 in the assay on HT29 (colon) amounted to 1520 nM; with MDA-MB-231 (breast) it was 1430 nM.

For the compound `C[C@@H]1O[C@@H](n2c3ccccc3c3c4c(c5c6ccccc6[nH]c5c32)CNC4=O)C[C@@H](O)[C@H]1O` [formula (XIV), N^13-1′-β-L-digitoxosyl-k252c], the GI50 was found to be 3400 nM in the assay with HT29 (colon) and 2490 nM in the assay on MDA-MB-231 (breast).

`C[C@H]1O[C@@H](n2c3ccccc3c3c4c(c5c6ccccc6[nH]c5c32)CNC4=O)C[C@@H](O)[C@@H]1O` [formula (XV), N^13-1′-β-D-olivosyl-k252c]: the values for the GI50 in the assay with HT29 (colon) and in the assay on MDA-MB-231 (breast) were 3850 nM and 3170 nM, respectively.

For `C[C@]12O[C@H]([C@H](O)[C@H](O)[C@H]1O)n1c3ccccc3c3c4c(c5c6ccccc6n2c5c31)CNC4=O` [formula (XVI), N^12-5′(S)-N^13-1′-(R)-L-rhamnosyl-k252c], the GI50 in the assay on HT29 (colon) came to 870 nM; in the assay with MDA-MB-231 (breast), 590 nM.

Take `C[C@]12O[C@H](C[C@H](O)[C@H]1O)n1c3ccccc3c3c4c(c5c6ccccc6n2c5c31)CNC4=O` [formula (XVII), N^12-5′(S)-N^13-1′-(R)-L-olivosyl-k252c]: the GI50 in the assay with HT29 (colon) was 1210 nM; in the assay with MDA-MB-231 (breast) it was 1050 nM.

In the case of `C[C@]12O[C@H](C[C@@H](O)[C@H]1O)n1c3ccccc3c3c4c(c5c6ccccc6n2c5c31)CNC4=O` [formula (XVIII), N^12-5′(S)-N^13-1′-(R)-L-digitoxosyl-k252c], the GI50 came out at 1520 nM in the assay with HT29 (colon) and 1840 nM with MDA-MB-231 (breast).

For the origin of these results see patent publication US8598132B2, “Glycosylated indolocarbazoles, method for obtaining same and uses thereof” (Universidad de Oviedo, priority 2008, dated 2013).
